Experimental data: patent publication US9309248B2, “Azaindolines” (Hoffmann-La Roche Inc., priority 2012, dated 2016)

Tests used:
[1] = target: T1, BIR3 domain of XIAP (Homo sapiens, UniProt P98170); assay: TR-FRET assay for BIR3 (inhibition of binding of XIAP BIR3 domain to SMAC-derived Peptide A); settings: 6x Histidine-tagged BIR3 domain (amino acids 241-356 of XIAP) 10 nM, Peptide A 20 nM
T1 construct: BIR3 domain, corresponding to amino acids 241-356 of XIAP
Method: (§1) TR-FRET Assay for BIR2 and BIR3
(§2) The ability of a test compound to inhibit the binding of BIR2 and/or BIR3 domains of the XIAP protein to Peptide A (a SMAC-derived peptide described below) evidences that the test compound acts as a SMAC-mimetic resulting in reactivation of a cell's apoptotic pathway.
(§3) The peptides were labeled with the fluorescent tags FITC or TAMRA and Kd values were determined by fluorescence polarization assay. […] The peptide sequence was derivatized with biotin to provide […]-(ε-biotin)-OH 1:2 TFA as the substrate for the TR-FRET assay.
The sequence of the BIR3 domain used for the TR-FRET assay is […]
Ten nanomolar of 6× Histidine-tagged BIR2 domain, corresponding to amino acids 124-240 of XIAP, or BIR3 domain, corresponding to amino acids 241-356 of XIAP, was mixed with 20 nM of the peptide […]-(z-biotin)-OH 1:2 TFA, in the presence of 50 mM Tris-Cl, pH 7.5, 100 mM NaCl, 1 mM dithiothreitol (DTT) and 0.1 mg/mL bovine serum albumin (BSA). Following a […] incubation at 37° C., Europium-Streptavidin and Allophycocyanin conjugated anti-Histidine antibody were added to a final concentration of 1.5 nM and 15 nM, respectively. Time-resolved fluorescence resonance energy transfer (TR-FRET) signals were measured 1 hour later at room temperature. Test compound potency was assessed at 10 serially diluted concentrations. Percentage of inhibition at each concentration was determined to generate an IC50 value for each test compound.

[2] = target: T2, BIR2 domain of XIAP (Homo sapiens, UniProt P98170, C202A/C213G); assay: TR-FRET assay for BIR2 (inhibition of binding of XIAP BIR2 domain to SMAC-derived Peptide A); settings: 6x Histidine-tagged BIR2 domain (amino acids 124-240 of XIAP) 10 nM, Peptide A 20 nM
T2 construct: 6× Histidine-tagged BIR2 domain, corresponding to amino acids 124-240 of XIAP
Method: as §1, §2, §3
The XIAP protein sequence was obtained from the SWISS-PROT protein sequence database and the BIR2 and BIR3 domains were derived from that. The sequence of the BIR2 domain used for the TR-FRET assay is […].
Time-resolved fluorescence resonance energy transfer (TR-FRET) signals were measured 1 hour later at room temperature. Test compound potency was assessed at 10 serially diluted concentrations. Percentage of inhibition at each concentration was determined to generate an IC50 value for each test compound.

T2 sequence (P98170 with tags, fused parts or gaps C202A/C213G): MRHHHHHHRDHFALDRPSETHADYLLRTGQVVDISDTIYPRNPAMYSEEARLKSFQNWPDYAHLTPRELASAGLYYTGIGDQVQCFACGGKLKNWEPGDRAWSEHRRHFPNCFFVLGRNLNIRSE
T1 sequence (P98170 with tags, fused parts or gaps): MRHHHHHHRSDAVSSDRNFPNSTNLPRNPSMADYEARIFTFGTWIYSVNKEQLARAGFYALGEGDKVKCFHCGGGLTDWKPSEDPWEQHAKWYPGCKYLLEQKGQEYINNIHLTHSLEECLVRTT

SMILES | IC50 [1] | IC50 [2]
CN[C@@H](C)C(=O)N[C@H](C(=O)N1c2ncccc2C[C@H]1C(=O)Nc1cc(F)cc(F)c1)C(C)C [Example 23, (S)-1-[(S)-3-Methyl-2-((S)-2-methylamino-propionylamino)-butyryl]-2,3-dihydro-1H-pyrrolo[2,3-b]pyridine-2-carboxylic acid (3,5-difluoro-phenyl)-amide] | > 54800 nM | 427 nM
CN[C@@H](C)C(=O)N[C@H](C(=O)N1c2ncccc2C[C@H]1C(=O)NCc1ccc(F)cc1)C(C)C [Example 24, (S)-1-[(S)-3-Methyl-2-((S)-2-methylamino-propionylamino)-butyryl]-2,3-dihydro-1H-pyrrolo[2,3-b]pyridine-2-carboxylic acid 4-fluoro-benzylamide] | 9210 nM | 774 nM
CN[C@@H](C)C(=O)N[C@H](C(=O)N1c2ncccc2C[C@H]1C(=O)Nc1ccccc1Cl)C(C)C [Example 25, (S)-1-[(S)-3-Methyl-2-((S)-2-methylamino-propionylamino)-butyryl]-2,3-dihydro-1H-pyrrolo[2,3-b]pyridine-2-carboxylic acid (2-chloro-phenyl)-amide] | > 54800 nM | 25.4 nM
CN[C@@H](C)C(=O)N[C@H](C(=O)N1c2ncccc2C[C@H]1C(=O)Nc1c(F)cccc1F)C(C)C [Example 28, (S)-1-[(S)-3-Methyl-2-((S)-2-methylamino-propionylamino)-butyryl]-2,3-dihydro-1H-pyrrolo[2,3-b]pyridine-2-carboxylic acid (2,6-difluoro-phenyl)-amide] | > 54800 nM | 14.4 nM
CN[C@@H](C)C(=O)N[C@H](C(=O)N1c2ncccc2C[C@@H]1C(=O)Nc1c(F)cccc1F)C(C)C [Example 29, (R)-1-[(S)-3-Methyl-2-((S)-2-methylamino-propionylamino)-butyryl]-2,3-dihydro-1H-pyrrolo[2,3-b]pyridine-2-carboxylic acid (2,6-difluoro-phenyl)-amide] | > 54800 nM | 421 nM
CN[C@@H](C)C(=O)N[C@H](C(=O)N1c2ncccc2C[C@H]1C(=O)Nc1c(C)cccc1F)C(C)C [Example 32, (S)-1-[(S)-3-Methyl-2-((S)-2-methylamino-propionylamino)-butyryl]-2,3-dihydro-1H-pyrrolo[2,3-b]pyridine-2-carboxylic acid (2-fluoro-6-methyl-phenyl)-amide] | > 54800 nM | 9.59 nM

Next, values leading:

IC50 [1] | IC50 [2] | SMILES
52300 nM | 61 nM | CN[C@@H](C)C(=O)N[C@H](C(=O)N1c2ncccc2C[C@H]1C(=O)Nc1ccccc1C(=O)c1ccccc1)C(C)C [Example 26, (S)-1-[(S)-3-Methyl-2-((S)-2-methylamino-propionylamino)-butyryl]-2,3-dihydro-1H-pyrrolo[2,3-b]pyridine-2-carboxylic acid (2-benzoyl-phenyl)-amide]
> 54800 nM | 2110 nM | CN[C@@H](C)C(=O)N[C@H](C(=O)N1c2ncccc2C[C@@H]1C(=O)Nc1ccccc1C(=O)c1ccccc1)C(C)C [Example 27, (R)-1-[(S)-3-Methyl-2-((S)-2-methylamino-propionylamino)-butyryl]-2,3-dihydro-1H-pyrrolo[2,3-b]pyridine-2-carboxylic acid (2-benzoyl-phenyl)-amide]
46800 nM | 158 nM | CN[C@@H](C)C(=O)N[C@H](C(=O)N1c2ncccc2C[C@H]1C(=O)Nc1ccccc1Oc1ccccc1)C(C)C [Example 30, (S)-1-[(S)-3-Methyl-2-((S)-2-methylamino-propionylamino)-butyryl]-2,3-dihydro-1H-pyrrolo[2,3-b]pyridine-2-carboxylic acid (2-phenoxy-phenyl)-amide]
> 54800 nM | 11700 nM | CN[C@@H](C)C(=O)N[C@H](C(=O)N1c2ncccc2C[C@@H]1C(=O)Nc1ccccc1Oc1ccccc1)C(C)C [Example 31, (R)-1-[(S)-3-Methyl-2-((S)-2-methylamino-propionylamino)-butyryl]-2,3-dihydro-1H-pyrrolo[2,3-b]pyridine-2-carboxylic acid (2-phenoxy-phenyl)-amide]
